The text below walks through data of patent US7943606B2, “Compositions and methods to control abnormal cell growth” (CanCure Laboratories, LLC, priority 2005, dated 2011).

Counter-ions that a name gives are not always drawn. A value given as a limit tells only on which side of the number the result lay.

A short description of series [1]: Viability of NIH 3T3 normal fibroblasts (MTT assay). The format is cell-based. To be noted: mouse. The method, then:
(§1) To quantify cell death, around the time when significant and characteristic morphological changes took place, cells were pulse-labeled for 10 minutes with [^3H]thymidine to measure DNA activity as described elsewhere [Tomono, M. and Kiss, Z. (1995), “Ethanol enhances the stimulatory effects of insulin and insulin-like growth factor-I on DNA synthesis in NIH 3T3 fibroblasts,” Biochem. Biophys. Res. Commun. 208, 63-67]. Also, cells were collected as suspensions using trypsin, an established method in cell biology, followed by re-plating of cells in fresh tissue culture medium. If no viable cells were obtained after one week in culture, it meant that the cells at the time of re-plating were dead. Survival values obtained with untreated cells were considered 100%. For the determination of relative number of viable cells after treatments, in most cases the MTT assay was used. This calorimetric assay is based on the ability of living cells, but not dead cells, to reduce 3-(4,5-dimethyl thiazol-2-yl)-2,5-diphenyltetrazolium bromide [Carmichael, J, De Graff, W. G., Gazdar, A. F., Minna, J. D. and Mitchell, J. B. (1987), “Evaluation of tetrazolium-based semi-automated calorimetric assay: Assessment of chemosensitivity testing,” Cancer Res. 47, 936-942]. For this assay, cells were plated in 96-well plates, and the MTT assay was performed both in untreated and treated cell cultures. The MTT assay also was performed at the start of treatments to allow assessment of proliferation rates in the control and treated cell cultures.
(§2) The NIH 3T3 (normal) mouse fibroblast, A431 human epidermoid adenocarcinoma, and MCF-7 human breast cancer cells were cultured in DMEM medium containing 10% FBS. The MEL-28 human melanoma cells were cultured in MEM medium containing 10% FBS. The HT-29 human colon adenocarcinoma cells were cultured in McCoy's 5a medium containing 10% FBS. The A549 human lung carcinoma cells were maintained in Ham's F12K medium containing 10% FBS. Cells were seeded into 96-well plates and treated at ˜70-90% confluency. Two hours before treatments the medium was changed for fresh 10% serum medium, and then the cells were incubated for 72 hours in the presence of 0-200 μM of CCompound1 (●) or CCompound3 (CCDTHT) (▴), as indicated. The MTT assay was used to determine cell viability after treatments. The values, shown in FIGS. 5A-5F and expressed as percent decrease in viability compared to the untreated control cells, are the mean±std. dev. of 8 incubations in one experiment. Similar results were obtained in another experiment.
(§3) NIH3T3, T47D, A-431, HT-29, and MEL-28 cells were cultured as indicated earlier. CaOV-3 human ovarian cancer cells were cultured in DMEM containing 10% FBS. ZR-75-1 human estrogen receptor-positive breast cancer cells were maintained in RPMI 1640 medium supplemented with 10% FBS. HTB-157 human fetal fibroblasts, MEL-24 human malignant melanoma cells, Hep G2 human hepatoblastoma cells, and CaCO-2 human colon adenocarcinoma cells were maintained in Eagles's MEM containing 10% FBS. MB-231 human estrogen receptor-negative breast cancer cells were maintained in Leibovitz's L-15 medium supplemented with 10% FBS. Cells were seeded into 96-well plates and treated at ˜70-90% confluency. Two hours prior to treatments the medium was changed for fresh 10% serum medium, and then the cells were incubated for 10 days in the absence (□) or presence of 50 μM CCDTHT ? or 100 μM CCDTHT (▪). The medium was changed and the cells were re-treated on days 3 and 6. The MTT assay was used to determine cell viability on day 10. The data, shown in FIG. 6, are the mean±std. dev. of 8 incubations in one experiment. (The experiment was repeated twice with similar results).
(§4) NIH 3T3, MEL-28, MEL-24, CaOV-3, ZR-75-1, and T47D cells were cultured as described above. The OVCAR human ovarian cancer cells were cultured in DMEM containing 10% FBS. Cells were seeded into 96-well plates and used at ˜60-80% confluency. […]
Background: Tetrazolium assays rely on reduction of a dye to a coloured formazan, in cell work by metabolically active cells.

Series [2] has as its system A-431 cells. As to the kind of experiment: Viability of A-431 epidermoid adenocarcinoma cells (MTT assay). To be noted: for inhibition at 100 µM: Homo sapiens, A-431, similar comparative study (100 μM, 72 hours), read-out: inhibition of proliferation, A-431. The format is cell-based, human. The method, then: as §1, §2, §3, §4
Series [3] deals with PC-3 cells. Put plainly: Proliferation of PC-3 prostate cancer cells. The format is cell-based. To be noted: Homo sapiens, similar comparative study (100 μM, 72 hours).
Series [4] deals with A549 cells. Put plainly: Viability of A549 lung carcinoma cells (MTT assay). The format is cell-based, human. The method, then: To quantify cell death, around the time when significant and characteristic morphological changes took place, cells were pulse-labeled for 10 minutes with [^3H]thymidine to measure DNA activity as described elsewhere [Tomono, M. and Kiss, Z. (1995), “Ethanol enhances the stimulatory effects of insulin and insulin-like growth factor-I on DNA synthesis in NIH 3T3 fibroblasts,” Biochem. Biophys. Res. Commun. 208, 63-67]. Also, cells were collected as suspensions using trypsin, an established method in cell biology, followed by re-plating of cells in fresh tissue culture medium. If no viable cells were obtained after one week in culture, it meant that the cells at the time of re-plating were dead. […]
The NIH 3T3 (normal) mouse fibroblast, A431 human epidermoid adenocarcinoma, and MCF-7 human breast cancer cells were cultured in DMEM medium containing 10% FBS. […] The values, shown in FIGS. 5A-5F and expressed as percent decrease in viability compared to the untreated control cells, are the mean±std. dev. of 8 incubations in one experiment. […]
(§5) NIH 3T3, MEL-28, MEL-24, CaOV-3, ZR-75-1, and T47D cells were cultured as described above. […] The inhibitory effects of CC compounds on cell proliferation are expressed as percent decrease compared to untreated cell cultures (the greater the number, the greater the inhibitory effect of the CC compound). […]

Series [5] relates to MB-231 cells. Put plainly: Viability of MB-231 breast cancer cells (MTT assay). The format is cell-based, human. The method, then:
To quantify cell death, around the time when significant and characteristic morphological changes took place, cells were pulse-labeled for 10 minutes with [^3H]thymidine to measure DNA activity as described elsewhere [Tomono, M. and Kiss, Z. (1995), “Ethanol enhances the stimulatory effects of insulin and insulin-like growth factor-I on DNA synthesis in NIH 3T3 fibroblasts,” Biochem. Biophys. Res. Commun. 208, 63-67]. Also, cells were collected as suspensions using trypsin, an established method in cell biology, followed by re-plating of cells in fresh tissue culture medium. If no viable cells were obtained after one week in culture, it meant that the cells at the time of re-plating were dead. Survival values obtained with untreated cells were considered 100%. For the determination of relative number of viable cells after treatments, in most cases the MTT assay was used. […]
as §5

Series [6] has as its system HT-29 cells. As to the kind of experiment: Viability of HT-29 colon adenocarcinoma cells (MTT assay). The format is cell-based, human. To be noted: for inhibition at 100 µM: HT-29, similar comparative study (100 μM, 72 hours), read-out: inhibition of proliferation, HT-29. The protocol: as §1, §2
as §3, with “The MTT assay was used to determine cell viability on day 10. The data, shown in FIG. 6, are the mean±std. dev. of 8 incubations in one experiment. (The experiment was repeated twice with similar results).” left out

Series [7] deals with HepG2 cells. As to the kind of experiment: Viability of HepG2 hepatoblastoma cells (MTT assay). The class given is cell-based, human. To be noted: 50 and 100 μM, 10 days. The protocol:
To quantify cell death, around the time when significant and characteristic morphological changes took place, cells were pulse-labeled for 10 minutes with [^3H]thymidine to measure DNA activity as described elsewhere [Tomono, M. and Kiss, Z. (1995), “Ethanol enhances the stimulatory effects of insulin and insulin-like growth factor-I on DNA synthesis in NIH 3T3 fibroblasts,” Biochem. Biophys. Res. Commun. 208, 63-67]. Also, cells were collected as suspensions using trypsin, an established method in cell biology, followed by re-plating of cells in fresh tissue culture medium. If no viable cells were obtained after one week in culture, it meant that the cells at the time of re-plating were dead. Survival values obtained with untreated cells were considered 100%. For the determination of relative number of viable cells after treatments, in most cases the MTT assay was used. This calorimetric assay is based on the ability of living cells, but not dead cells, to reduce 3-(4,5-dimethyl thiazol-2-yl)-2,5-diphenyltetrazolium bromide [Carmichael, J, De Graff, W. G., Gazdar, A. F., Minna, J. D. and Mitchell, J. B. (1987), “Evaluation of tetrazolium-based semi-automated calorimetric assay: Assessment of chemosensitivity testing,” Cancer Res. 47, 936-942]. For this assay, cells were plated in 96-well plates, and the MTT assay was performed both in untreated and treated cell cultures. […]

With `CC[N+](C)(CC)CCOCc1ccc2sc3ccccc3c(=O)c2c1.[I-]` [CCDTHT, N,N-diethyl-N-methyl-2-[(9-oxo-9H-thioxanthen-2-yl)methoxy]-ethanaminium iodide], the cytotoxicity at 10 days, 100 μM in series [1] was at most 50%. Besides, the “decrease in viability, A-431” value in series [2] (0-200 μM, 72 hours, MTT) is given as “similarly large effects”. The “sensitivity to the inhibitory actions, A-431” value in series [2] (50 and 100 μM, 10 days, MTT) is “very sensitive”. Further, the inhibition at 100 µM lay in the range of 68 to 74% in series [2] and 54 to 55% in series [3]. In series [4] (0-200 μM, 72 hours, MTT), the “reduction of cell numbers, A-549, CCDTHT versus CCompound1” value is given as “clearly more effective than CCompound1”. Also, the “sensitivity to the inhibitory actions, MB-231” value in series [5] (50 and 100 μM, 10 days, MTT) is “moderately sensitive”. In addition, the “reduction of cell numbers, HT-29, CCDTHT versus CCompound1” value in series [6] (0-200 μM, 72 hours, MTT) is recorded as “clearly more effective than CCompound1”. In series [6] (100 μM, 72 hours, MTT), the “decrease in the number of viable cells versus 0.5 mM HC-3, HT-29” value is reported as “much greater decreases in the number of viable cells compared to 0.5 mM HC-3”. In series [6] (Homo sapiens, HT-29, 240 h, 100 μM, 10 days, MTT, read-out: reduction in the number of viable cells, HT-29), the cytotoxicity at 100 µM is at most 50%. Further, the “sensitivity to the inhibitory actions, HepG2” value in series [7] is on record as “moderately sensitive”.

For the compound `CC[N+](CC)(CC)CCCOCc1ccc2sc3ccccc3c(=O)c2c1` [CCcompound9, N,N,N-Triethyl-3-[(9-oxo-9H-thioxanthen-2-yl)methoxy]-propane-1-aminium iodide], the inhibition at 100 µM in series [2] was 68 to 74%.

Regarding `CC[N+](C)(C)CCCOCc1ccc2sc3ccccc3c(=O)c2c1` [CCcompound11, N,N-Dimethyl-N-ethyl-3-[(9-oxo-9H-thioxanthen-2-yl)methoxy]-propane-1-aminium iodide], the inhibition at 100 µM in series [3] is 54 to 55%; in series [4] (Homo sapiens, A549, similar comparative study (100 μM, 72 hours), read-out: inhibition of proliferation, A549) it was 68%; in series [5] (Homo sapiens, similar comparative study (100 μM, 72 hours), read-out: inhibition of proliferation, MB-231), 75%; in series [6] (Homo sapiens), 63 to 71%.

Consider `CC[NH+](CC)CCCOCc1ccc2sc3ccccc3c(=O)c2c1` [CCcompound12, 2-{[3-(Diethylamino)propoxy]meth-yl}-9H-thioxanthen-9-one hydrochloride], for which the inhibition at 100 µM in series [2] fell in the range of 68 to 74%.

Turning to `CC[N+](CC)(CCO)Cc1ccc2sc3ccccc3c(=O)c2c1` [CCcompound14, 2-Hydroxy-N,N-Diethyl-N-[(9-oxo-9H-thioxanthen-2-yl)methyl]-ethanaminium bromide], the inhibition at 100 µM in series [6] (Homo sapiens) was 63 to 71%.
